According to publication PMC3350394, “Kinetic analysis and test-retest variability of the radioligand [^11C](R)-PK11195 binding to TSPO in the human brain - a PET study in control subjects” (EJNMMI Research, 2012):
Several values for one entry are separate records, joined by “and”; a condition that tells them apart may be missing. Equal entries are not always repeated.

Target: TSPO (Homo sapiens, UniProt P30536)
Test: PET, kinetic compartment analysis (1TCM, 2TCM) with metabolite-corrected arterial input function
Conditions: for BPND (k3/k4) Mean: mean of test and retest; for BPND (k3/k4) Retest / BPND (k3/k4) Test / VT (2TCM): mean(SD); for BPND (k3/k4) Retest / BPND (k3/k4) Test: 6 subjects; for ICC: BPND test-retest
Method: Each subject was placed recumbent with the head in the PET system. A head fixation system with an individual plaster helmet was used. A cannula was inserted into the left radial artery and another into the right antecubital vein. A sterile phosphate buffer (pH = 7.4) containing radioligand was injected as a bolus over 2 s into the cubital vein. The cannula was then immediately flushed with a 10-mL saline solution. In each individual, the measurement was repeated after approximately 6 weeks.
The PET system used was ECAT Exact HR 47 (Siemens/CTI, Knoxville, TN, USA), with an in-plane and an axial resolution of 3.6 and 4.0 mm, respectively, full width at half maximum (FWHM). The radioactivity in the brain was measured continuously for 60 min using a pre-programmed sequence of […] (20 s × 9, 30 s × 6, 180 s × 5, 300 s × 5). […] The images were reconstructed with a Hanning filter (FWHM = 2 mm) in a matrix of 128 × 128 × 47 voxels, yielding a voxel size of 2.03 × 2.03 × 3.125 mm. Attenuation correction was done using transmission scan data obtained for each subject.
[^11C](R)-PK11195 binding to TSPO was quantified using kinetic compartment analyses with the metabolite-corrected arterial plasma curve as input function. Two compartment models (one- and two-tissue) were used to fit the model to the TACs. The fractional volume of blood present in the tissue volume and bolus time were estimated for each individual, each occasion, by fitting the whole brain TAC with a two-tissue compartment model.
The one-tissue compartment model (1TCM) describes one compartment which is a composite of free, non-specifically and specifically bound radioligands. The two rate constants, K1 and k2, describe the influx and efflux rates across the blood-brain barrier, respectively.
The two-tissue compartment model (2TCM) has been described in detail in the literature. The two-tissue compartments are defined as the radioactivity concentration of a nondisplaceable radioligand in the brain (CND) and the radioactivity concentration of a radioligand specifically bound to receptors (CB). In this model, four rate constants (K1, k2, k3 and k4) explain the time curves for radioligand in the brain. In short, the four rate constants were determined by curve fitting with a weighted non-linear least squares fitting technique with constraint-restricting parameters between 0 and 0.9. Each initial value for K1, k2, k3 and k4 was 0.5, 0.1, 0.5 and 0.5, respectively. The local minimum of the sum of the squared residuals was determined by iteration.
Regional [^11C](R)-PK11195 binding was expressed using the concept of the total distribution volume (VT), which is defined by the following equation, using kinetic constants obtained from 2TCM [16, 20, 21].
Specific [^11C](R)-PK11195 binding was expressed as binding potential relative to nondisplaceable binding (BPND) as follows:
The fractional volume of blood present in the tissue volume was determined for each individual, each occasion. It was obtained by fitting whole brain TAC with a 2TCM with six parameters (K1, k2, k3, k4, fractional blood volume (VB) and time shift between plasma input function and PET TAC (tbolus)) and parameters VB and tbolus subsequently applied for each brain region.
The reproducibility of two successive PET measurements was analysed by means of descriptive statistics (mean, range, SD, coefficient of variance (CV), difference in measurement (error in percent) and intra-class correlation coefficient (ICC)). The ICC was calculated from the between-subject and within-subject variations, using the expression: […]

[1] = brainstem, BPND test-retest difference in measurements
[2] = brainstem, VT (2TCM) test-retest
[3] = caudate (L), BPND test-retest difference in measurements
[4] = caudate (R), BPND test-retest difference in measurements
[5] = cerebellum, BPND test-retest difference in measurements
[6] = cerebellum, VT (2TCM) test-retest
[7] = grey matter, cortex, BPND test-retest difference in measurements
[8] = grey matter, 1TCM, retest (2), individual subjects 1-6
[9] = grey matter, 1TCM, test (1), individual subjects 1-6
[10] = grey matter, 1TCM, test (1), mean(SD/CV) of 6 subjects
[11] = grey matter, 2TCM, retest (2), individual subjects 1-6
[12] = grey matter, 2TCM, retest (2), mean(SD/CV) of 6 subjects
[13] = grey matter, 2TCM, test (1), individual subjects 1-6
[14] = grey matter, 2TCM, test (1), mean(SD/CV) of 6 subjects
[15] = grey matter, VT (2TCM) test-retest
[16] = putamen (L), BPND test-retest difference in measurements

Chain of TSPO (P30536 whole entry): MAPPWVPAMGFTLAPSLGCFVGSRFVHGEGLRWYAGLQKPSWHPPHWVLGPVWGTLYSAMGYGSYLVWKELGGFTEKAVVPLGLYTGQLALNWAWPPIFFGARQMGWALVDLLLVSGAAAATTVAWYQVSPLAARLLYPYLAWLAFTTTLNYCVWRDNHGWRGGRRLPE

CC[C@@H](C)N([11CH3])C(=O)c1cc2ccccc2c(-c2ccccc2Cl)n1 [[^11C](R)-PK11195]
influx rate constant K1 (2TCM, range): 0.05 to 0.09 | BPND throughout the human brain, range (2TCM, regional means): 1.11 to 2.21 | BPND (k3/k4) Mean (brainstem, 2TCM): 2.09 | BPND (k3/k4) Retest (brainstem, 2TCM): 2.18(0.33) | BPND (k3/k4) Test (brainstem, 2TCM): 2.00(0.35) | ICC (brainstem): -0.6 | Error % mean(SD) [1]: -13(31) % | Error range (%) [1]: -45 to 26% | Error % mean(SD) [2]: -13(10) % | Error range (%) [2]: -29 to -1% | VT (2TCM) (brainstem, retest): 0.74 (0.16) | VT (2TCM) (brainstem, test): 0.86(0.18) | BPND (k3/k4) Mean (caudate (L), 2TCM): 1.68 | BPND (k3/k4) Retest (caudate (L), 2TCM): 1.84(0.93) | BPND (k3/k4) Test (caudate (L), 2TCM): 1.52(0.43) | ICC (caudate (L)): -0.05 | Error % mean(SD) [3]: -27(66) % | Error range (%) [3]: -133 to 42% | BPND (k3/k4) Mean (caudate (R), 2TCM): 1.77 | BPND (k3/k4) Retest (caudate (R), 2TCM): 2.21(1.19) | BPND (k3/k4) Test (caudate (R), 2TCM): 1.33(0.68) | ICC (caudate (R)): 0.01 | Error % mean(SD) [4]: -96(126) % | Error range (%) [4]: -288 to12% | BPND (k3/k4) Mean (caudate, 2TCM): 1.65 | BPND (k3/k4) Retest (caudate, 2TCM): 1.92(0.87) | BPND (k3/k4) Test (caudate, 2TCM): 1.37(0.55) | ICC (caudate): 0.01 | Error range (%) (caudate, BPND test-retest difference in measurements): -155 to 30% | Error % mean(SD) (caudate, VT (2TCM) test-retest): 25(36) % | Error range (%) (caudate, VT (2TCM) test-retest): -35 to 62% | VT (2TCM) (caudate, retest): 1.06 (0.24) | VT (2TCM) (caudate, test): 0.88(0.13) | BPND (k3/k4) Mean (cerebellum, 2TCM): 1.33 | BPND (k3/k4) Retest (cerebellum, 2TCM): 1.37(0.24) | BPND (k3/k4) Test (cerebellum, 2TCM): 1.29(0.19) | ICC (cerebellum): 0.07 | Error % mean(SD) [5]: -8% and -8(20) % | Error range (%) [5]: -21 to 32% | Error % mean(SD) [6]: -1(18) % | Error range (%) [6]: -32 to 24% | VT (2TCM) (cerebellum, retest): 0.72 (0.16) | VT (2TCM) (cerebellum, test): 0.74(0.18) | BPND (k3/k4) Mean (grey matter, cortex, 2TCM): 1.55 | BPND (k3/k4) Retest (grey matter, cortex, 2TCM): 1.59(0.29) | BPND (k3/k4) Test (grey matter, cortex, 2TCM): 1.50(0.27) | ICC (grey matter, cortex): 0.47 | Error % mean(SD) [7]: 5% and 5(18) % | Error range (%) [7]: -24 to 25% | K1 [8]: 0.094 mL/cc/min and 0.035 mL/cc/min and 0.044 mL/cc/min and 0.045 mL/cc/min and 0.056 mL/cc/min and 0.057 mL/cc/min | k2 [8]: 0.111 min⁻¹ and 0.086 min⁻¹ and 0.108 min⁻¹ and 0.091 min⁻¹ and 0.099 min⁻¹ and 0.118 min⁻¹ | k2 (grey matter, 1TCM, retest (2), mean(SD/CV) of 6 subjects): 0.102(0.012/12) min^-1 | K1 [9]: 0.062 mL/cc/min and 0.037 mL/cc/min and 0.042 mL/cc/min and 0.074 mL/cc/min and 0.054 mL/cc/min | k2 [9]: 0.086 min⁻¹ and 0.087 min⁻¹ and 0.111 min⁻¹ and 0.106 min⁻¹ and 0.116 min⁻¹ and 0.096 min⁻¹ | K1 [10]: 0.055(0.014/25) mL/cc/min | k2 [10]: 0.100(0.012/12) min^-1 | K1 [11]: 0.077 mL/cc/min and 0.129 mL/cc/min and 0.049 mL/cc/min and 0.067 mL/cc/min and 0.060 mL/cc/min and 0.073 mL/cc/min | k2 [11]: 0.287 min⁻¹ and 0.318 min⁻¹ and 0.246 min⁻¹ and 0.340 min⁻¹ and 0.239 min⁻¹ and 0.234 min⁻¹ | k3 [11]: 0.059 min⁻¹ and 0.111 min⁻¹ and 0.062 min⁻¹ and 0.068 min⁻¹ and 0.065 min⁻¹ | k4 [11]: 0.041 min⁻¹ and 0.076 min⁻¹ and 0.035 min⁻¹ and 0.032 min⁻¹ and 0.045 min⁻¹ and 0.044 min⁻¹ | K1 [12]: 0.076 (0.028/37) mL/cc/min | k2 [12]: 0.277(0.045/16) min^-1 | k3 [12]: 0.071(0.02/28) min^-1 | k4 [12]: 0.046(0.016/34) min^-1 | K1 [13]: 0.082 mL/cc/min and 0.048 mL/cc/min and 0.054 mL/cc/min and 0.094 mL/cc/min and 0.072 mL/cc/min | k2 [13]: 0.220 min⁻¹ and 0.245 min⁻¹ and 0.221 min⁻¹ and 0.264 min⁻¹ and 0.252 min⁻¹ | k3 [13]: 0.061 min⁻¹ and 0.055 min⁻¹ and 0.040 min⁻¹ and 0.038 min⁻¹ and 0.076 min⁻¹ and 0.058 min⁻¹ | k4 [13]: 0.033 min⁻¹ and 0.038 min⁻¹ and 0.023 min⁻¹ and 0.029 min⁻¹ and 0.067 min⁻¹ and 0.026 min⁻¹ | K1 [14]: 0.072(0.018/25) mL/cc/min | k2 [14]: 0.237(0.019/8) min^-1 | k3 [14]: 0.055(0.014/25) min^-1 | Error % mean(SD) [15]: -6(17) % | Error range (%) [15]: -36 to 15% | VT (2TCM) (grey matter, retest): 0.70 (0.17) | VT (2TCM) (grey matter, test): 0.76(0.18) | BPND (k3/k4) Mean (putamen (L), 2TCM): 1.44 | BPND (k3/k4) Retest (putamen (L), 2TCM): 1.60(0.67) | BPND (k3/k4) Test (putamen (L), 2TCM): 1.28(0.31) | ICC (putamen (L)): 0.02 | Error % mean(SD) [16]: -30(59) % | Error range (%) [16]: -145 to 23%
